The test deals with M. mycetomatis genome strain MM55. In words: CLSI M38-A2 based in vitro susceptibility screening (XTT or resazurin), growth at fixed concentration. Format: cell-based, Madurella mycetomatis. The conditions noted are these: Madurella mycetomatis; for Percent fungal survival at 100 µM: read-out: Percentage survival at 100um, 100 uM A (second replicate column). For orientation: Formazan colour is commonly taken as a measure of viable cells.

Where [1] appears, read: replicate A, read-out: Percentage survival at 25um, 25 um A.
[2] abbreviates: replicate B, read-out: Percentage survival at 25um, 25 uM B.
Where [3] appears, read: replicate C, read-out: Percentage survival at 25um, 25 uM C.
Where [4] appears, read: mean of three replicates, read-out: Percentage survival at 25um, 25 uM mean.
Setting [5] is: first replicate column, read-out: Percentage survival at 100um, 100 uM A.
Where [6] appears, read: mean of three replicates, read-out: Percentage survival at 100um, 100 uM mean.
Where [7] appears, read: second replicate column, read-out: Percentage survival at 100um, 100 uM A.
Where [8] appears, read: third replicate column, read-out: Percentage survival at 100um, 100 uM A.
Setting [9] is: mean of replicates, MM55, read-out: Percentage survival at 25um, 25 uM mean.
The mark [10] stands for this setting: replicate A, MM55, read-out: Percentage survival at 25um, 25 um A.
[11] abbreviates: replicate B, MM55, read-out: Percentage survival at 25um, 25 uM B.
Setting [12] is: replicate C, MM55, read-out: Percentage survival at 25um, 25 uM C.
Where [13] appears, read: mean of replicates, MM55, read-out: Percentage survival at 100um, 100 uM mean.
The mark [14] stands for this setting: replicate 1, MM55, read-out: Percentage survival at 100um, 100 uM A.
Setting [15] is: replicate 2, MM55, read-out: Percentage survival at 100um, 100 uM A.
Setting [16] is: replicate 3, MM55, read-out: Percentage survival at 100um, 100 uM A.
Setting [17] is: replicate 1, read-out: Percentage survival at 100um, 100 uM A (first replicate column).
Where [18] appears, read: replicate 3, read-out: Percentage survival at 100um, 100 uM A (third replicate column).
[19] abbreviates: mean of three, M. mycetomatis MM55, read-out: Percentage survival at 25um, 25 uM mean.
[20] abbreviates: replicate A, M. mycetomatis MM55, read-out: Percentage survival at 25um, 25 um A.
Where [21] appears, read: replicate B, M. mycetomatis MM55, read-out: Percentage survival at 25um, 25 uM B.
[22] abbreviates: replicate C, M. mycetomatis MM55, read-out: Percentage survival at 25um, 25 uM C.
The mark [23] stands for this setting: mean of three, M. mycetomatis MM55, read-out: Percentage survival at 100um, 100 uM mean.
Where [24] appears, read: replicate 1, M. mycetomatis MM55, read-out: Percentage survival at 100um, 100 uM A (first replicate column).
[25] abbreviates: replicate 2, M. mycetomatis MM55.
The mark [26] stands for this setting: replicate 3, M. mycetomatis MM55, read-out: Percentage survival at 100um, 100 uM A (third replicate column).

Molecules are shown by their SMILES. Like-named read-outs stand apart in the source and are kept apart here.

On to `CCN(CC)S(=O)(=O)c1ccc(Cl)c(C(=O)Nc2sc3c(c2C#N)CCCC3)c1` [MMV1634384], for which the activity at 25 µM runs as follows: (mean of replicates, read-out: Percentage survival at 25um, 25 uM mean) 89.4%; under setting [1], 87.9%; under setting [2], 80.1%; under setting [3], 100%. The activity at 100 µM (mean of replicates, read-out: Percentage survival at 100um, 100 uM mean) came to 89.5%; the activity at 100 µM (replicate 1, read-out: Percentage survival at 100um, 100 uM A) stood at 89.4%; the activity at 100 µM (replicate 2, read-out: Percentage survival at 100um, 100 uM A) turned out to be 89.9%; the activity at 100 µM (replicate 3, read-out: Percentage survival at 100um, 100 uM A) came to 89.3%.

Consider `CCc1c(OCC2CCC2)c2cc(F)ccc2[nH]c1=O` [MMV1634395], for which the activity at 25 µM by setting is: under setting [4], 67.1%; under setting [1], 59.4%; under setting [2], 71.5%; under setting [3], 70.4%. Besides, the activity at 100 µM reads like this: under setting [5], 62.9%; under setting [6], 55.6%; under setting [7], 45.1%; under setting [8], 58.8%.

For `COCCn1cnc2c(=O)[nH]c(Nc3ccccc3)nc21` [MMV1782103], the activity at 25 µM is 86.8% under setting [9], 90% under setting [10], 97.7% under setting [11] and 72.6% under setting [12]. Besides, the activity at 100 µM reads like this: under setting [13], 75.1%; under setting [14], 87.4%; under setting [15], 60.4%; under setting [16], 77.5%.

As to `O=C1c2cccc3cccc(c23)C(=O)N1CC1CO1` (centres unmarked) [MMV1634360], the activity at 25 µM by setting is: (mean, read-out: Percentage survival at 25um, 25 uM mean) 61%; under setting [1], 65.4%; under setting [2], 62.1%; under setting [3], 55.4%. Moreover, the activity at 100 µM (mean, read-out: Percentage survival at 100um, 100 uM mean) was 2.87%; the activity at 100 µM (replicate (first column), read-out: Percentage survival at 100um, 100 uM A) is -2.26%; the activity at 100 µM (replicate (second column), read-out: Percentage survival at 100um, 100 uM A) is 3.27%; the activity at 100 µM (replicate (third column), read-out: Percentage survival at 100um, 100 uM A) came out at 7.61%.

For `O=C(NN1C(=O)[C@@H]2C3C=CC([C@H]4C[C@@H]34)[C@@H]2C1=O)c1ccc(C(F)(F)F)cc1` [MMV1782114], the activity at 25 µM amounted to 90.1% under setting [4], 95.2% under setting [1], 94.5% under setting [2] and 80.6% under setting [3]. In addition, the activity at 100 µM was determined as 84.5% under setting [6], 90% under setting [17] and 85% under setting [18]. The Percent fungal survival at 100 µM (replicate 2) was determined as 78.4%.

Take `Fc1ccc(-c2nc(-c3c[nH]c4ccc(Br)cc34)[nH]c2-c2ccc(F)cc2)cc1` [MMV1593537]: the activity at 25 µM was 61.4% under setting [19], 38% under setting [20], 20.2% under setting [21] and 126% under setting [22]. Also, the activity at 100 µM runs as follows: under setting [23], 3.84%; under setting [24], 4.18%; under setting [26], 5.52%. In addition, under setting [25], the Percent fungal survival at 100 µM stood at 1.82%.

For `CC(C)(C)c1ccc(C(Cn2cccc(C(F)(F)F)c2=O)NC2Cc3ccccc3C2)cc1` (centres unmarked) [MMV1634393], the activity at 25 µM was determined as 62.5% under setting [9], 51.3% under setting [10], 64.6% under setting [11] and 71.7% under setting [12]. Moreover, the activity at 100 µM stood at 66.7% under setting [13], 63.7% under setting [14], 74.2% under setting [15] and 62.2% under setting [16].

For `C[C@H]1CC[C@@]2(O)C(C)(C)[C@@H]3CC[C@@]2(C)[C@H]1C3` [MMV1578556], the activity at 25 µM turned out to be 75.9% under setting [19], 69.5% under setting [20], 83.8% under setting [21] and 74.3% under setting [22]. Besides, the activity at 100 µM came out at 84.9% under setting [23], 79.8% under setting [24] and 82.4% under setting [26]. Also, the Percent fungal survival at 100 µM under setting [25] was determined as 92.6%.

Take `c1cc(CN2CCCNCCNCCCNCC2)ccc1CN1CCCNCCNCCCNCC1` [MMV1580502]: the activity at 25 µM turned out to be 91.1% under setting [9], 89% under setting [10], 97.4% under setting [11] and 86.9% under setting [12]. Besides, the activity at 100 µM is, setting by setting: under setting [13], 83.6%; under setting [14], 86.9%; under setting [15], 83.7%; under setting [16], 80.2%.

Consider `CCC[C@H](NC(=O)[C@@H]1[C@H]2CCC[C@H]2CN1C(=O)[C@@H](NC(=O)[C@@H](NC(=O)c1cnccn1)C1CCCCC1)C(C)(C)C)C(=O)C(=O)NC1CC1` [MMV1580494], for which the activity at 25 µM is, setting by setting: under setting [9], 85.9%; under setting [10], 89.9%; under setting [11], 95.2%; under setting [12], 72.5%. Besides, the activity at 100 µM runs as follows: under setting [13], 89.5%; under setting [14], 96.1%; under setting [15], 101%; under setting [16], 71.1%.

As to `NC(=S)N/N=C/c1ncccc1N` [MMV1580496], the activity at 25 µM under setting [9] was 67.8%, the activity at 25 µM under setting [10] amounted to 65.1%, the activity at 25 µM under setting [11] worked out at 79% and the activity at 25 µM under setting [12] stood at 59.3%. The activity at 100 µM under setting [13] was found to be 44.6%, the activity at 100 µM under setting [14] was 65.1%, the activity at 100 µM under setting [15] stood at 56.6% and the activity at 100 µM under setting [16] was found to be 12%.

Turning to `CN(C(=O)C1(c2ccc(Cl)cc2)CCC1)c1ccccc1` [MMV1581030], the activity at 25 µM reads like this: under setting [9], 63.9%; under setting [10], 61.1%; under setting [11], 107%; under setting [12], 23.2%. Further, the activity at 100 µM reads like this: under setting [13], 9.02%; under setting [14], 16%; under setting [15], 1.46%; under setting [16], 9.58%.

As for `COc1ccc2cc3[n+](cc2c1OCCN(CCn1cncn1)Cc1ccc(F)cc1F)CCc1cc2c(cc1-3)OCO2` [MMV1593540], the activity at 25 µM under setting [19] was 87.6%, the activity at 25 µM under setting [20] is 96.5%, the activity at 25 µM under setting [21] was found to be 90.9% and the activity at 25 µM under setting [22] was 75.5%. For the same compound, the activity at 100 µM runs as follows: under setting [23], 84.2%; under setting [24], 80.5%; under setting [26], 88.4%. Also, under setting [25], the Percent fungal survival at 100 µM is 83.8%.

Turning to `CCOC(=O)/C=C/[C@H](C[C@@H]1CCNC1=O)NC(=O)[C@H](CC)n1cccc(NC(=O)c2cc(C)on2)c1=O` [MMV1782112], the activity at 25 µM was 92.1% under setting [4], 76.9% under setting [1], 89.6% under setting [2] and 110% under setting [3]. For the same compound, the activity at 100 µM reads like this: under setting [5], 81.9%; under setting [6], 68.4%; under setting [7], 76.6%; under setting [8], 46.5%.

For the compound `CCCCCCCCCN1C[C@@H](O)[C@H](O)[C@@H](O)[C@@H]1CO` [MMV1593513], the activity at 25 µM reads like this: under setting [4], 93.6%; under setting [1], 92%; under setting [2], 104%; under setting [3], 85.1%. The activity at 100 µM came out at 87.5% under setting [6], 91.7% under setting [17] and 86.2% under setting [18]. Moreover, the Percent fungal survival at 100 µM (replicate 2) is 84.5%.

Consider `O=C(Cn1cnc2ccccc2c1=O)Nc1ccccc1` [MMV1578891], for which the activity at 25 µM turned out to be 80.3% under setting [4], 84% under setting [1], 82.2% under setting [2] and 74.7% under setting [3]. The activity at 100 µM by setting is: under setting [6], 83.9%; under setting [17], 90.8%; under setting [18], 81.6%. Further, the Percent fungal survival at 100 µM (replicate 2) came out at 79.4%.
